The source made the active and inactive calls.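 The calls were made as follows: active = compounds giving half or more protection of infected cells from virus-caused growth loss, again on retest; inactive = the rest.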
System: CEM cells HIV-1 protection, formazan growth assay
Experiment: NCI AIDS Antiviral Assay
Conditions: for IC50: measured here: growth of uninfected CEM cells
Method in brief: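 Category rules: moderately active means at least 50% protection on retest, and confirmed active means 100% protection reproducibly. The underlying data came from a formazan growth assay in HIV-1-infected CEM cells.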

Compound | EC50 | IC50 | outcome
CC(C)(C)c1ccc(O)c(C(O)c2ccccn2)c1 (configuration not stated) | > 200 µM | 81.3 µM | 
CC(=O)Oc1ccccc1-c1cc2ccccc2oc1=O | > 200 µM | > 100 µM | 
O=c1ccn(C/C=N/OCCP(=O)(O)O)c(=O)[nH]1 | > 200 µM | > 200 µM | 
CC1(C)OCC(C)(C)C(O)C1=O (configuration not stated) | > 1450 µM | 977 µM | 
CNC(=O)N(CCC#N)CCCN(C(=O)N(C)C)c1ccccc1 | > 200 µM | > 200 µM | 
COc1cc2ccc1OCc1cccc(n1)COc1ccc(cc1OC)C=Nc1ccc(cc1)N=C2 | > 200 µM | > 200 µM | 
COc1ccc(/C=C(\C(C)=O)C(=O)Nc2ccccc2)cc1 | > 17.8 µM | > 17.8 µM | 
N#Cc1nc(-c2ccco2)oc1N | > 200 µM | > 200 µM | 
COc1cc2c(c(O)c1C)C(=O)CC(c1ccccc1)O2 (configuration not stated) | > 35.5 µM | > 35.5 µM | 
O=C(O)c1ccc(CS(=O)c2ccccc2)c([N+](=O)[O-])c1 (configuration not stated) |  |  | inactive
O=C(c1ccc(NCN2C(=O)CCC2=O)cc1)c1ccc(NCN2C(=O)CCC2=O)cc1 | > 30.2 µM | > 30.2 µM | 
CCOC(=O)c1nc2c3c(ncn2n1)Oc1c(c(-c2ccccc2)nn1-c1ccccc1)C3c1ccc(Cl)cc1 (configuration not stated) | > 200 µM | > 200 µM | 
Nc1ncnc2c1ncn2C1OC(COP(=O)(O)CP(=O)(O)O)C(O)C1O (configuration not stated) | > 200 µM | > 200 µM | 
Cc1ccc2c3c(cnc2n1)C(=O)OCCN3C | > 200 µM | > 200 µM | 
COc1cc(OC)c2c(c1)C(=O)c1cc(C)cc(O)c1C2=O |  |  | inactive
CO/N=C1\CC(NC(=O)C(F)(F)F)c2ccsc21 (configuration not stated) | > 200 µM | > 200 µM | 
COc1ccc2c(c1OC)C(=O)O[C@@H]2[C@H]1c2c(cc3c(c2OC)OCO3)CCN1C | > 200 µM | 24.5 µM | 
O=c1[nH]oc2ccccc12 | > 200 µM | > 200 µM | 
CC(=O)OCC1OC(n2c(=S)n(-c3ccccc3)c(=O)c3ccccc32)C(OC(C)=O)C(OC(C)=O)C1OC(C)=O (configuration not stated) | > 32.4 µM | > 32.4 µM | 
O=C(O)C(Cc1ccc2c(c1)CCC2)(Cc1ccc2c(c1)CCC2)C(=O)O | > 200 µM | > 200 µM | 
CC(=O)Nc1ccc2cc(-c3ccc(Cl)cc3)c3nnnn3c2n1 | > 200 µM | > 200 µM | 
COC(=O)CN(CC1O[C@@H]2OC(C)(C)O[C@@H]2C1NC(C)=O)C(=O)OCc1ccccc1 (some centres not stated) | > 200 µM | > 200 µM | 
C#C[C@]1(O)CCC2C3CCc4cc(Oc5nc(F)nc(-c6c7cc8ccccc8cc7c7n6CCS7)n5)ccc4C3CCC21C (some centres not stated) | > 200 µM | 25.1 µM | 

Compound | EC50 | IC50 | outcome
C=C(C)[C@@]1(O)O[C@H]2C[C@@]3(C)OC(=CC3=O)/C(C)=C\[C@@H]3OC(=O)[C@@]1(C)[C@H]32 | > 200 µM | 5.25 µM | 
O=C(Oc1ccc(Cl)cc1[N+](=O)[O-])c1ccccc1 |  |  | inactive
O=c1[nH]c2ccccc2c(=O)c2cc3ccccc3cc12 | > 200 µM | > 200 µM | 
CC1(C)O[C@@H]2COC(=O)[C@@H]2O1 | > 200 µM | > 200 µM | 
O=C(CSc1nnc(-c2ccc(Cl)cc2)s1)Nc1nccs1 | > 200 µM | > 200 µM | 
CC(C)CN1CN(c2ccccc2)C2(CCN(CC(C)(c3ccc(F)cc3)C3OCCO3)CC2)C1=O (configuration not stated) | > 100 µM | 12.6 µM | 
CN1CC2=C(OC(N)=C(C#N)C2c2cccs2)/C(=C/c2cccs2)C1 (configuration not stated) | > 200 µM | 8.13 µM | 
COC(=O)C(Cc1nc2ccccc2[nH]c1=O)C(=O)C(=O)Nc1cc(C(F)(F)F)ccc1Cl (configuration not stated) | > 74.1 µM | 7.41 µM | 
O=C(O)Cc1cccc2c1Oc1ccccc1S2 | > 5620 µM | 204 µM | 
CCC(=O)N(c1ccccc1)C(C)CN1CCC(O)(c2ccccc2)CC1 (configuration not stated) | > 200 µM | > 200 µM | 
O=C(Nc1ccc(Cl)cc1)NS(=O)(=O)c1ccc2c(c1)CCC2 | > 708 µM | 47.9 µM | 
CCCCCCCCCCCCCCCCCCSCC12c3ccccc3C(c3ccccc31)C(COS(=O)(=O)O)C2COS(=O)(=O)O (configuration not stated) | > 100 µM | 64.6 µM | 
O=c1c2ccccc2n2n1Cc1ccccc1C2 | > 200 µM | 102 µM | 
CS(=O)(=O)N(CCC#N)c1ccc(/C=C2\N=C(c3ccccc3Cl)OC2=O)cc1 | > 219 µM | > 219 µM | 
Nc1ccn(CC(=O)NCCCO)c(=O)n1 | > 200 µM | > 200 µM | 
O=C(N/C(=C\c1ccc([N+](=O)[O-])cc1)c1nc2ccc(Cl)cc2[nH]1)c1ccccc1 |  |  | inactive
O=c1c2ccccc2oc2cc(Br)ccc12 | > 26.3 µM | > 26.3 µM | 
CNC(=O)CNC(=O)CCC(=O)N(C)C | > 200 µM | > 200 µM | 
Cc1cc2[nH]c3c(C#N)c(O)c(C)c(=O)n3c2cc1C | > 166 µM | > 166 µM | 
N=C(/C=C/c1ccc(-c2cn3cc(/C=C/C(=N)N4CCOCC4)ccc3n2)cc1)N1CCOCC1 | 162 µM | 186 µM | 
COc1cccc(C2c3cc4c(cc3OC(N3CCCC3)C2C)OCO4)c1 (configuration not stated) | > 200 µM | 3.8 µM | 
c1ccc(-c2csc3[nH]c4ccccc4[n+]23)cc1 |  |  | inactive
Cc1cc(-c2ccc(C(=O)O)[nH]2)on1 | > 200 µM | 69.2 µM | 

Compound | EC50 | IC50 | outcome
CC1(C)Oc2ccc3c(=O)cc(-c4ccc(F)cc4)oc3c2C1C(=O)O (configuration not stated) | > 200 µM | > 200 µM | 
O=C(O)Cc1cccc2c(=O)c(-c3ccccc3)coc12 | > 200 µM | > 200 µM | 
C/C(CN1C(=O)c2ccccc2C1=O)=N\NS(=O)(=O)c1ccccc1 | > 20.4 µM | > 20.4 µM | 
Oc1ccccc1/C=N/N1C(=S)N(C23CC4CC(CC(C4)C2)C3)C(=Nc2ccccc2)C1=Nc1ccccc1 | > 200 µM | 85.1 µM | 
CCCCCCCN1C(=O)C(O)(c2ccc(C3(O)C(=O)N(CCCCCCC)c4ccccc43)s2)c2ccccc21 (configuration not stated) | > 200 µM | 11.2 µM | 
CC(=N/NC(=S)N(C)C)/C(=N\NC(=S)N(C)C)c1ccccc1 | > 200 µM | 3.63 µM | 
Nc1cc(Cl)cc2cc(Cl)cnc12 | > 200 µM | 117 µM | 
S=C(Nc1ccc2c(c1)oc1ccccc12)c1cccs1 | > 200 µM | > 200 µM | 
O=C1NC2CCC(C2)C1c1ccccc1 (configuration not stated) |  |  | inactive
Cc1ccc(N(CC(=O)O)S(=O)(=O)c2ccccc2)cc1 |  |  | inactive
Cc1ccc(Sc2ccccc2N)cc1 | > 178 µM | 51.3 µM | 
O=C(O)CCCCSCCCCCCSCCCCC(=O)O | > 141 µM | > 141 µM | 
CN=c1ss/c(=N\C(=S)N(C)C)n1C1CCCCC1 |  |  | inactive
CC1=CCCC(C)C1(C)CC/C(C)=C/CC/C(C)=C/CS(=O)(=O)CCN=C(N)N (configuration not stated) | > 61.7 µM | 10.7 µM | 
COC(=O)C(Cc1cn(C(C)n2cc(CC(NC(C)=O)C(=O)OC)c3ccccc32)c2ccccc12)NC(C)=O (configuration not stated) | > 81.3 µM | 74.1 µM | 
Cc1ccc(-n2nnc3c(NNc4ccccc4)n[nH]c(=O)c32)cc1 | > 200 µM | 25.7 µM | 
O=C(CC1(O)C(=O)Nc2c(Cl)cc(Cl)cc21)c1ccc2ccccc2c1 (configuration not stated) | > 49 µM | 20.4 µM | 
CNC(=O)CCC(NC(C)=O)C(=O)NC(Cc1ccc(NC(=O)CCCCC(C)=O)cc1)C(=O)NC(CCC(=O)NC)C(=O)NC (configuration not stated) | > 200 µM | > 200 µM | 
CCCCCN(CCCCC)CC(=O)OCC1(C)CCCC2(C)C3CCC(C(C)C)=CC3=CCC12 (configuration not stated) | > 200 µM | 35.5 µM | 
C=CCOc1ccc(N)c([N+](=O)[O-])c1 | > 200 µM | > 200 µM | 
CC1(O)C(O)C(O)C1(O)CO (configuration not stated) (tested in a mixture with another compound) | > 200 µM | > 200 µM | 
Cc1cccc(N=Nc2c(S(=O)(=O)O)cc3cc(NC(=O)Nc4ccc5c(O)c(N=Nc6ccc7cc(S(=O)(=O)O)ccc7c6)c(S(=O)(=O)O)cc5c4)ccc3c2O)c1 | 15.8 µM | 75.9 µM | 
Cc1ccc(NC2=N/C(=C/c3ccco3)C(Cl)=N2)cc1 | > 200 µM | 158 µM | 

Compound | EC50 | IC50 | outcome
Cc1cc(C2CCCCC2)n(O)c(=O)c1 |  |  | inactive
COCCCCCCCCCCC(=O)OCC1OC(n2cc(C)c(=O)[nH]c2=O)CC1N=[N+]=[N-] (configuration not stated) |  | 117 µM | active
C[C@H]1[C@H](C)Oc2c3c(c4c(CO)cc(=O)oc4c2[C@H]1O)OC(C)(C)C=C3 | > 200 µM | > 200 µM | 
CN(c1ccc(Cl)cc1)S(=O)(=O)c1cccc([N+](=O)[O-])c1 | > 200 µM |  | 
BrCc1ccc(C[P+](c2ccccc2)(c2ccccc2)c2ccccc2)cc1 | > 200 µM | 3.89 µM | 
CC(=O)NC(CCCCN(Cc1ccccc1)C(=O)N(CCCl)N=O)C(=O)NCc1ccccc1 (configuration not stated) | > 72.4 µM | > 72.4 µM | 
CCOC(=O)NC(C(F)(F)F)(C(F)(F)F)P(=O)(OCC)OCC | > 200 µM | 11.5 µM | 
CCn1nc(C(=O)O)c(=O)c2cc3c(cc21)OCO3 | > 200 µM | > 200 µM | 
Cc1ccc(S(=O)(=O)Sc2ccccc2)cc1 | > 135 µM | 21.9 µM | 
CC1(Br)C(=O)C(O)=C(Br)C1=O (configuration not stated) | > 200 µM | 19.5 µM | 
Cc1nc(C(N)=S)sc1C(=O)CC(=O)C(=O)Nc1nc2ccccc2[nH]1 | > 93.3 µM | > 93.3 µM | 
COc1ccc(NC(=O)/C(C#N)=C/c2ccc(O)c(O)c2)cc1O | > 200 µM | 16.2 µM | 
[O-]c1c(-c2cccc3ccccc23)sc(-c2cccc3ccccc23)[n+]1-c1ccccc1 |  |  | inactive
CCCCOCOc1ccccc1P1(=O)COc2ccccc2OC1 | > 200 µM | 44.7 µM | 
C#CCN1CCC2=C(C1)c1c(O)cc(C(C)C(C)CCCCC)cc1OC2(C)C (configuration not stated) | > 32.4 µM | 14.8 µM | 
COC(=O)C(CC(=O)c1cc2c(cc1I)OCO2)Cc1cc(OC)c(OC)c(OC)c1I (configuration not stated) | > 14.8 µM | > 14.8 µM | 
CC(=O)OC1CC2CCC1(C)C2(C)C (configuration not stated) | > 200 µM | > 200 µM | 
N#C/C(=C\c1ccccc1[N+](=O)[O-])c1ccccc1 | > 5.75 µM | > 5.75 µM | 
CN1C(=O)C(O)CC1c1ccccc1C(F)(F)F (configuration not stated) | > 200 µM | > 200 µM | 
CCn1c(O)c(C=Nc2ccccc2)s/c1=N/Nc1nc(C)cs1 | > 200 µM | 174 µM | 
